Results published in ChEMBL document CHEMBL1201862, “PubChem BioAssay data set” (2004).
Activity calls are given as the source filed them.

Tests used:
[1] = target: T1, Sentrin-specific protease 1 (Homo sapiens, UniProt Q9P0U3); test: Dose response confirmation of small molecule inhibitors of the catalytic domain of the SUMO protease, SENP1 in a FRET assay.; assay type: functional; conditions: read-out: IC50_Mean
T1 sequence (Q9P0U3 whole entry): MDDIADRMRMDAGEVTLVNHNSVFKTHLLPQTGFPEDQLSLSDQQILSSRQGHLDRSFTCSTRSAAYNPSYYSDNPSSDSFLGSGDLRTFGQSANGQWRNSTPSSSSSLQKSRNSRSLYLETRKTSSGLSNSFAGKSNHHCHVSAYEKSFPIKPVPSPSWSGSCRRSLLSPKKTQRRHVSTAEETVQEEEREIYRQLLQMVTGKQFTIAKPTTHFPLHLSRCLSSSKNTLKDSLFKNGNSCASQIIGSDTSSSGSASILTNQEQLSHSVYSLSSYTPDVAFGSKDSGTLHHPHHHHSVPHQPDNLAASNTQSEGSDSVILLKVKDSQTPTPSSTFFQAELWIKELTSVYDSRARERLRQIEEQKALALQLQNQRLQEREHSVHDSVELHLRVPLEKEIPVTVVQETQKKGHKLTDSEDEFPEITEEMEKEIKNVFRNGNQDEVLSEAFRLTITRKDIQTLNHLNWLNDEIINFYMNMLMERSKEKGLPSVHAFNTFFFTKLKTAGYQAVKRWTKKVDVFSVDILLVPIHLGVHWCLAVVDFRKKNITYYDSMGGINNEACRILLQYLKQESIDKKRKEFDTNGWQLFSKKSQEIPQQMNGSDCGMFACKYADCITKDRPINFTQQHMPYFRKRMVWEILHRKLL

[2] = target: T1, Sentrin-specific protease 1; test: SENP1 catalytic domain blockers, concentration series – biochemical, kinetic FRET, dose response (AID 651697); assay type: functional; conditions: read-out: IC50_Mean
[3] = blockers of CRF-binding protein–CRF-R2 complex – cell-based, uHTS hits, 384-well, dose response (AID 651639); assay type: functional, Homo sapiens; conditions: read-out: IC50_Mean
Fatty acid synthase [4] = target: T2, Fatty acid synthase (Homo sapiens, UniProt P49327); test: inhibition of human FAS-TE enzyme activity – biochemical, endpoint fluorescence intensity, uHTS hits, dose response (AID 624327); assay type: functional;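 further: fluorescence from hydrolysis of an O-methyl fluorescein acyl ester substrate by the enzyme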
[5] = target: T3, Corticotropin-releasing factor receptor 2/Corticotropin-releasing factor-binding protein (Homo sapiens, UniProt P24387+Q13324); test: Dose Response confirmation of uHTS hits for small molecule antagonists of the CRF-binding protein and CRF-R2 receptor complex.; assay type: functional; conditions: read-out: IC50_Mean
T3 sequence (Q13324 whole entry): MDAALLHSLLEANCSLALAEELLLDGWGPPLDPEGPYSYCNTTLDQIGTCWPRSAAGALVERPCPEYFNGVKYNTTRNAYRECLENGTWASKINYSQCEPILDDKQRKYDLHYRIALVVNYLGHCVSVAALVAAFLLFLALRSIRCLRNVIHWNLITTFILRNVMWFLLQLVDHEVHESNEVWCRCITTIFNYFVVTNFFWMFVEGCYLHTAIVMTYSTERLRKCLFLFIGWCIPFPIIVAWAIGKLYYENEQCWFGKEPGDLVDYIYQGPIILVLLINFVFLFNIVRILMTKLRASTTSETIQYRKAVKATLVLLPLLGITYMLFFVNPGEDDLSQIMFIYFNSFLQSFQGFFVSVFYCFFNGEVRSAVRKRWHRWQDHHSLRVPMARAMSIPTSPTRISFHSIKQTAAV
T3 sequence (P24387 whole entry): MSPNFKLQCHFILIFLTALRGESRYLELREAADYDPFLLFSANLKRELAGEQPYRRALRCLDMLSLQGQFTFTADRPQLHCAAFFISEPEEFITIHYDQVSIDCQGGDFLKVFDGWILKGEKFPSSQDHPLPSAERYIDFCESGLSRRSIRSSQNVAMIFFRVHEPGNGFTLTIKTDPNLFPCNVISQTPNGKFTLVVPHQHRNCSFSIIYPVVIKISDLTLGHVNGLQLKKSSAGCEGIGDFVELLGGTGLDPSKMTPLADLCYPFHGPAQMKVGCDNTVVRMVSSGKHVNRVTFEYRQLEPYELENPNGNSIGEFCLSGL

Fatty acid synthase [6] = target: T2, Fatty acid synthase; test: inhibition of human FAS-TE enzyme activity – biochemical, kinetic fluorescence intensity, dose response (AID 624326); assay type: functional;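 further: rate of fluorescence rise from hydrolysis of a fluorogenic O-methyl fluorescein ester substrate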
[7] = target: T3, Corticotropin-releasing factor receptor 2/Corticotropin-releasing factor-binding protein; test: activators of CRF receptor 2 with binding protein – uHTS hits, confirmation (AID 602473); assay type: functional; conditions: read-out: EC50_Mean
[8] = target: G-protein coupled receptor 55 (Homo sapiens, UniProt Q9Y2T6); test: inhibition of LPI-stimulated GPR55 beta-arrestin translocation – imaging, U2OS, beta-arrestin-GFP, LPI agonist, primary screen (AID 2013); assay type: functional;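 further: antagonist potency measured as reduced agonist-driven arrestin aggregation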
[9] = target: Glucose-6-phosphate 1-dehydrogenase (Homo sapiens, UniProt P11413); test: inhibition of Homo sapiens G6PD, dose series – biochemical, fluorescence, selectivity assay for P. falciparum G6PD inhibitor project, dose response (AID 504792); assay type: functional
[10] = target: T4, Heat shock factor protein 1 (Mus musculus, UniProt P38532); test: decrease of HSF1-responsive luciferase luminescence – cell-based, NIH3T3, dose retest, confirmation (AID 2382); assay type: functional;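 further: NIH3T3 fibroblasts with HSF1-driven luciferase reporter stressed by proteasome inhibitor MG132; luminescence from HSF1-driven luciferase expression after 8 hours of MG132 stress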
T4 sequence (P38532 whole entry): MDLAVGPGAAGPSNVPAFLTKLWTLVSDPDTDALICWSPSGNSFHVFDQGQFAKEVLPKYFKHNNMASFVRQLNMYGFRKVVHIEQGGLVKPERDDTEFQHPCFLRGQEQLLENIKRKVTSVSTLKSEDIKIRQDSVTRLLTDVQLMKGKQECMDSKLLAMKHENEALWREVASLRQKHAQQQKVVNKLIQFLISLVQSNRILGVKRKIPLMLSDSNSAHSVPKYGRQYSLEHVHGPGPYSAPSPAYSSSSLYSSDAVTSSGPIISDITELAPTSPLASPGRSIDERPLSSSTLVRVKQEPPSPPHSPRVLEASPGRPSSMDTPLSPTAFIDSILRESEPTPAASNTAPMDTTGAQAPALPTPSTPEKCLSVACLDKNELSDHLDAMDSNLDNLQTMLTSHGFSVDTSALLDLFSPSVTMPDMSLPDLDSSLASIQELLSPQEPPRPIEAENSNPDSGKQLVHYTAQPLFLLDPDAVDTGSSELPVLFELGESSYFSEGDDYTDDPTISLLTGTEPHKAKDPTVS

[11] = target: T5, Mannose-6-phosphate isomerase (Homo sapiens, UniProt P34949); test: MPI inhibition at elevated mannose 6-phosphate – biochemical, fluorescence intensity, high mannose 6-phosphate, primary screen (AID 1220)
T5 sequence (P34949 whole entry): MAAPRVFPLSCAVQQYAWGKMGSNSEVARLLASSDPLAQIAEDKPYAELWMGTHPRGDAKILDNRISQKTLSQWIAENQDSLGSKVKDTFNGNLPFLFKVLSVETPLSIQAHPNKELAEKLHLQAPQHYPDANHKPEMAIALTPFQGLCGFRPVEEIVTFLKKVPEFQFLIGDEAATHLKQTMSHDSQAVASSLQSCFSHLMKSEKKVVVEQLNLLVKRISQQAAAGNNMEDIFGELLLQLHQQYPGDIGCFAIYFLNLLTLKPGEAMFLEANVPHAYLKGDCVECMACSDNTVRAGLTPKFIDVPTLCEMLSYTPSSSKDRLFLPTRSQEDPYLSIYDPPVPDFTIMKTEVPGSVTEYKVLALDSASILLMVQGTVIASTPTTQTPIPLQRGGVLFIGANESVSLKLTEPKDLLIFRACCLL

[12] = target: T5, Mannose-6-phosphate isomerase; test: MPI enzyme activity inhibition – biochemical, fluorescence intensity, coupled assay, primary screen (AID 1209)
[13] = target: T6, E3 ubiquitin-protein ligase XIAP (Homo sapiens, UniProt P98170); test: small molecules displacing peptide from XIAP – biochemical, IAP family, fluorescence polarization (AID 1018); assay type: functional
[14] = target: T6, E3 ubiquitin-protein ligase XIAP; test: Counter Screen using XIAP-Bir3 for Chemical Antagonists of Bir1/2 domains of IAP-family anti-apoptotic proteins. [Related pubchem assays (depositor defined):AID1018, AID1449, AID1514, AID1638, AID1749, AID1750, AID488957, AID488963]
HEK293 = test: EBV LMP1 TES2 canonical NF-kB signalling blockers – cell-based, HEK293, luciferase, cherry-pick, dose response (AID 588343); assay type: functional; conditions: Homo sapiens
Vero [15] = test: cells; assay type: functional, cell-based; conditions: Chlorocebus sabaeus
[16] = tested on: Streptococcus sp. 'group A'; test: Streptococcus pyogenes SK(-)GAS viability under kanamycin – luminescence, BacTiterGlo, confirmation, counter-screen for streptokinase expression inhibitor project, dose response (AID 1900); assay type: functional, organism-based
Streptococcus = test: GAS UMAA2166 growth inhibition – luminescence, BacTiterGlo, counter-screen for streptokinase expression inhibitor project, dose response (AID 1915); assay type: functional, organism-based;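 further: potency for reduction of bacterial viability or growth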
Vero [17] = test: cells; assay type: functional; conditions: Chlorocebus sabaeus
[18] = Luminescence Cell-Based Dose Confirmation HTS to Identify Inhibitors of Platelet Dense Granule Release. [Related pubchem assays: 1663 (Primary HTS), 1678 (Summary of Project)]; assay type: functional
[19] = target: Luciferin 4-monooxygenase (Photinus pyralis, UniProt P08659); test: inhibition of purified Photinus pyralis luciferase – biochemical, luminescence, dose response (AID 1891)
[20] = Trypanosoma cruzi growth suppression in host cells – NIH3T3 host cells, beta-gal luminescence, confirmation (AID 2044); assay type: functional, cell-based;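 further: intracellular parasites grown in NIH/3T3 mouse fibroblasts as host cells; luminescent beta-galactosidase reporter signal from transgenic T. cruzi replicating inside host cells; inhibitors lower the luminescence signal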
[21] = NIH3T3 cell viability loss – ATP luminescence, mouse fibroblasts, counter-screen, dose response (AID 2010); assay type: functional, cell-based;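 further: cells exposed to compound for about 90 hours before reading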
Streptokinase A = target: T7, Streptokinase A (Streptococcus pyogenes serotype M1, UniProt P10520); test: viability-normalized secreted streptokinase activity reduction – plasminogen activation absorbance, OD405, dose response (AID 1914); assay type: functional, Streptococcus pyogenes M1 GAS;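 further: secreted streptokinase activity via plasminogen activation per viability signal from cell pellet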
T7 sequence (P10520 whole entry): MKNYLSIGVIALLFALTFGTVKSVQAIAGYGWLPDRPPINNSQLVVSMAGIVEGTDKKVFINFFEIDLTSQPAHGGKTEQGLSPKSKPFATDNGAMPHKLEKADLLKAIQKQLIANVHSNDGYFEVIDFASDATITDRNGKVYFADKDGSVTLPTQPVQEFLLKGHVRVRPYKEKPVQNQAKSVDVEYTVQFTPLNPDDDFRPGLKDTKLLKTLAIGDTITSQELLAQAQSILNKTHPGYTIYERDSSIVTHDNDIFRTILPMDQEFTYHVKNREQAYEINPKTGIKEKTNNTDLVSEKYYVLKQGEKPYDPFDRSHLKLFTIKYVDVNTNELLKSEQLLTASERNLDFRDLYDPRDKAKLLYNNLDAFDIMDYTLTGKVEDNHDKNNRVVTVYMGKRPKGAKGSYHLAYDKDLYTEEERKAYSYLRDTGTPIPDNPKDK

[22] = loss of viability in HepG2 cells – cell-based, CellTiter-Glo, cherry-picked, cytotoxicity control for Shn3 inhibitor project, dose response (AID 624134); assay type: functional
[23] = reduction of Shn3 3'UTR-driven luciferase in osteoblasts – cell-based, Clone20 osteoblasts, firefly luciferase, cherry-picked, dose response (AID 624132); assay type: functional;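 further: firefly luciferase luminescence from reporter carrying the Shn3 3'UTR in osteoblasts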
[24] = non-specific 3'UTR reporter inhibition in Clone20-Shn3RL – cell-based, Renilla luciferase, cherry-picked, counter-screen for Shn3 inhibitor project, dose response (AID 624133); assay type: functional
[25] = target: Dual specificity tyrosine-phosphorylation-regulated kinase 1A (Rattus norvegicus, UniProt Q63470); assay type: biochemical, Homo sapiens

Chain of Glucose-6-phosphate 1-dehydrogenase (P11413 whole entry): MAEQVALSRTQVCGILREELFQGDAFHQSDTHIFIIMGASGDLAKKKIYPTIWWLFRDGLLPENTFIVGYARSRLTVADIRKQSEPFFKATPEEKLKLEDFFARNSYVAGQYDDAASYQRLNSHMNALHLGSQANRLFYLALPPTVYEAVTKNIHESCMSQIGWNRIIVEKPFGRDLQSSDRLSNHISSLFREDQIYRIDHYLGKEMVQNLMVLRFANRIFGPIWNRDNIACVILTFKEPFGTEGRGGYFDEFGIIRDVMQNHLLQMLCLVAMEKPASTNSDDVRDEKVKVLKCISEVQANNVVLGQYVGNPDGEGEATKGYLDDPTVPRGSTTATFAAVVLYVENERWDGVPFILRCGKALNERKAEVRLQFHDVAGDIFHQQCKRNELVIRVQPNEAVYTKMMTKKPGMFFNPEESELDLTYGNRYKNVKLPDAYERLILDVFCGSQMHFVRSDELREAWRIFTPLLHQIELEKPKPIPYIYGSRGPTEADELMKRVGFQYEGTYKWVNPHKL
T6 sequence (P98170 whole entry): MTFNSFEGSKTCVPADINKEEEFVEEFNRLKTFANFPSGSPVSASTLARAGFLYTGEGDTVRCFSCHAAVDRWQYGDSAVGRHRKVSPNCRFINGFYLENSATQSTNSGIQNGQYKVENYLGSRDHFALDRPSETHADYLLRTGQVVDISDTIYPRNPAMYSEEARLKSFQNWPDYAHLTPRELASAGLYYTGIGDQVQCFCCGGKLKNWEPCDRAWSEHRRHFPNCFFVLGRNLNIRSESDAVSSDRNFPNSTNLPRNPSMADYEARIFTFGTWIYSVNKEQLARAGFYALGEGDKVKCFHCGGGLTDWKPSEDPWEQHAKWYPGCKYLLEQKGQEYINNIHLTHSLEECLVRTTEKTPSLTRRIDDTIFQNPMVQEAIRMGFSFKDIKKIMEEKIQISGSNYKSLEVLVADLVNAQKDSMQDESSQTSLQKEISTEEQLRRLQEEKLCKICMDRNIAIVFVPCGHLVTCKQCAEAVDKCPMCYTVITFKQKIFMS
T2 sequence (P49327 whole entry): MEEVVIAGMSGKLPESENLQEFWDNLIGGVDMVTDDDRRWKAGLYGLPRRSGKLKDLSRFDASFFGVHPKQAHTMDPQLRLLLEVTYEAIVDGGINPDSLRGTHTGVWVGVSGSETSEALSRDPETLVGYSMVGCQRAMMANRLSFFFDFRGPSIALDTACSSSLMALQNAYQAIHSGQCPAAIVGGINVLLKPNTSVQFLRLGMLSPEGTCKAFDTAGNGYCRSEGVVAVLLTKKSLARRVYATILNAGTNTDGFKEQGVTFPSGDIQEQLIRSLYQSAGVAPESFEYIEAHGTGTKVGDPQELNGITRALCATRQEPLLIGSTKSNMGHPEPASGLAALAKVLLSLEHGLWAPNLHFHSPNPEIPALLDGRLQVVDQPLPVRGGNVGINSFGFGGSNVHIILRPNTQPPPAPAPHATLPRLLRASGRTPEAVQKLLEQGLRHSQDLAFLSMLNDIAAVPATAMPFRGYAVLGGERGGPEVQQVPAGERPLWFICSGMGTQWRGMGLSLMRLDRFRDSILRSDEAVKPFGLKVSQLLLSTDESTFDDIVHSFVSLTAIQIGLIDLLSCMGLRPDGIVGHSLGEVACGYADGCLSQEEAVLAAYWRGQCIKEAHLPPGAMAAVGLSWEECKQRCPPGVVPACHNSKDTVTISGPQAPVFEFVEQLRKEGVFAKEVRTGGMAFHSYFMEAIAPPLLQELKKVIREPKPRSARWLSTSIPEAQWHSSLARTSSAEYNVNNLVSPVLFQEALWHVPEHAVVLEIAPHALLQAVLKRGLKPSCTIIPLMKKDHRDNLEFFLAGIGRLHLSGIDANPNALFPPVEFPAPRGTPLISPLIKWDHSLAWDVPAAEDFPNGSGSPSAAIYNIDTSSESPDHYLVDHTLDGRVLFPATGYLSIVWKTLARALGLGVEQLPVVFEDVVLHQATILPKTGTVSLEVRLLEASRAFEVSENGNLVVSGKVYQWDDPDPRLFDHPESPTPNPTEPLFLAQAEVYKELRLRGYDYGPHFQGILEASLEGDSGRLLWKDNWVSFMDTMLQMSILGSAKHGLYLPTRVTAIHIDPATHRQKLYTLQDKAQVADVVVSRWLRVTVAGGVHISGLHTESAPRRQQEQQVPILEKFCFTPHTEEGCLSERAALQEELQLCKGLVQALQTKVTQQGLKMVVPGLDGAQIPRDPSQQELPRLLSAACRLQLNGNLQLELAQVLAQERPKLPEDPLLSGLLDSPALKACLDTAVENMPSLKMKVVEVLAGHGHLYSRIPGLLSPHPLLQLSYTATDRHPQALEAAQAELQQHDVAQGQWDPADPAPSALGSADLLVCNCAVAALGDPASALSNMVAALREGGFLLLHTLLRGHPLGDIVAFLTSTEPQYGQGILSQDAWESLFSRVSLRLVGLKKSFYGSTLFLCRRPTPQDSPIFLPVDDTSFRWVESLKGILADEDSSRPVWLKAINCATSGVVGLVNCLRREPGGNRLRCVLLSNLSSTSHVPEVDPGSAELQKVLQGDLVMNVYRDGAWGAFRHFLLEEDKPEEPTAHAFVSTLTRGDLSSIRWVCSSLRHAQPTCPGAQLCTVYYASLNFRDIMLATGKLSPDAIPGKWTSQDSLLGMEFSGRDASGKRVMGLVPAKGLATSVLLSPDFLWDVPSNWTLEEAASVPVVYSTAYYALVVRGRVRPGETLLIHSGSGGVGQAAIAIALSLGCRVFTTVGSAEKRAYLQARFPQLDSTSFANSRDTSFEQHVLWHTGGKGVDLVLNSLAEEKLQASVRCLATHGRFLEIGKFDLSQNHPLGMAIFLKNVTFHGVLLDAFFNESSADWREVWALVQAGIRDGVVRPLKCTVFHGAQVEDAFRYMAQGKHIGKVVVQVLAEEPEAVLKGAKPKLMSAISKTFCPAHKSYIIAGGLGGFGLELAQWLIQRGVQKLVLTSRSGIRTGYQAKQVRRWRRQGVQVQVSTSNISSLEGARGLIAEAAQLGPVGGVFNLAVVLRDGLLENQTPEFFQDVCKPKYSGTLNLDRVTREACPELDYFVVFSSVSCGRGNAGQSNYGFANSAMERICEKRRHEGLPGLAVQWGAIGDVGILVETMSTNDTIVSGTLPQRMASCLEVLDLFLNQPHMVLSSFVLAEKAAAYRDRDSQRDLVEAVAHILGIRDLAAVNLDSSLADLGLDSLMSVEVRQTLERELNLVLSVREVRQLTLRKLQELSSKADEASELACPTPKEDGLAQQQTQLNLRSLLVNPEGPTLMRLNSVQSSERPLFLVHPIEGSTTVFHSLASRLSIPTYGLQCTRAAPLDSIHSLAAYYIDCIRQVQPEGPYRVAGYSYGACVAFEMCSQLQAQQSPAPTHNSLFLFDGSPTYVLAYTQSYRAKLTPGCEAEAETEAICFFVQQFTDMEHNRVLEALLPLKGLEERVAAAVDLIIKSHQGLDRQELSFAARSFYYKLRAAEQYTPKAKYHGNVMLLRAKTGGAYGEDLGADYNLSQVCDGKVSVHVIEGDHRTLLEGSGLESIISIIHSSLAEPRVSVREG
Chain of Luciferin 4-monooxygenase (P08659 whole entry): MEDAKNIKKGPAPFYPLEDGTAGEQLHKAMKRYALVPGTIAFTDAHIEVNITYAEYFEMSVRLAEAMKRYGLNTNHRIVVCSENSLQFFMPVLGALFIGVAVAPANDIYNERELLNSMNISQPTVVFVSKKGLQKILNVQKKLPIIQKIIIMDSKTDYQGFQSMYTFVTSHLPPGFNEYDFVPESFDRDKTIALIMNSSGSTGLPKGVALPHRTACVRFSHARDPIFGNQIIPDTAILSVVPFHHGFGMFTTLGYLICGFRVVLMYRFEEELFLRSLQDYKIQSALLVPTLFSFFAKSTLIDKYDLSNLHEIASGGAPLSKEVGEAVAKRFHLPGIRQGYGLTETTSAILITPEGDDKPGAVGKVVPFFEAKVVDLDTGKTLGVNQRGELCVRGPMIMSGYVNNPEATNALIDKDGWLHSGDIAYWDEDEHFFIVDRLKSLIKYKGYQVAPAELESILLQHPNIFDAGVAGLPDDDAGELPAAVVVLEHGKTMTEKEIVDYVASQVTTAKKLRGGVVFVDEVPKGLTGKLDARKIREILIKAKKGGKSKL
Chain of G-protein coupled receptor 55 (Q9Y2T6 whole entry): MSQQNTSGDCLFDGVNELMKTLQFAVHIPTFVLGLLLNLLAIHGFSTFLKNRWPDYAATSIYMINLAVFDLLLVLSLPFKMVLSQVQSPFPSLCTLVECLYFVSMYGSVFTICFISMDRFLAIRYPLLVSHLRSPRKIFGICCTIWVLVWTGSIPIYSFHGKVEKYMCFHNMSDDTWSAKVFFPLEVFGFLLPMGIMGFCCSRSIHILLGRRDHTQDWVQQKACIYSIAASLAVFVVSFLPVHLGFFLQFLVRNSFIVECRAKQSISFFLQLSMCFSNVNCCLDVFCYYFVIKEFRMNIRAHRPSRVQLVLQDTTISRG

Compound: COc1ccc(NN=C2C(=O)NC(=S)NC2=O)cc1
- IC50 [1]: 16.6 µM (active)
- IC50 [2]: 29.1 µM (inactive)

Compound: O=C(O)c1ccc(Cl)c(NC(=S)NC(=O)c2cccc(COc3ccccc3)c2)c1
- IC50 [3]: > 20 µM (inactive)
- IC50 (Fatty acid synthase [4]): 6.11 µM (active)
- IC50 [5]: < 0.368 µM (active)
- IC50 (Fatty acid synthase [6]): 4.47 µM (active)
- EC50 [7]: > 53 µM (inactive)
- IC50 [8]: 2.3 µM (active)

Compound: CCCCOc1ccc(Cc2nnc(S)n2N)cc1
- IC50 [9]: > 80 µM (inactive)

Compound: Cn1c(-c2sccc2OCc2cccc(C(F)(F)F)c2)n[nH]c1=S
- IC50 [9]: > 80 µM (inactive)
- EC50 [10]: > 195 µM (not active)

Compound: CC[n+]1c(C)sc2c(C)cc(C)cc21
- IC50 [11]: > 50 µM (not active)
- IC50 [12]: 10.8 µM (active)
- IC50 [13]: > 100 µM (not active)
- IC50 [14]: > 100 µM (inactive)

Compound: O=c1c2cnn(-c3ccccc3)c2nc(-c2cccs2)n1-c1ccc(Cl)cc1
- AC50 (HEK293): 1.78 µM (active)

Compound: COc1ccc(C(=O)NNC(=S)NC(=O)/C=C/c2cccs2)cc1
- IC50 (Vero [15]): > 25 µM (active)
- EC50 [16]: 0.802 µM (active)
- EC50 (Streptococcus): 4.2 µM (active)
- CC50 (Vero [17]): > 25 µM (active)

Compound: Cc1ccc(N2CC(C(=O)OCC(=O)c3ccc([N+](=O)[O-])cc3)CC2=O)cc1 (centres undefined)
- IC50 [9]: > 80 µM (inactive)

Compound: Oc1c(N=NC(S)=Nc2ccccc2F)c2ccccc2n1Cc1cccc(Cl)c1
- EC50 [18]: > 112 µM (not active)
- AC50 (HEK293): 4.15 µM (active)
- EC50 [16]: 2.69 µM (active)
- EC50 [19]: > 112 µM (not active)
- EC50 (Streptococcus): > 150 µM (not active)
- EC50 [20]: 0.676 µM (active)
- EC50 [21]: 1.71 µM (active)
- EC50 (Streptokinase A): > 150 µM (not active)

Compound: CCCCOc1ccc(OC(=O)Nc2cc(Cl)ccc2OC)cc1
- IC50 [3]: > 20 µM (inactive)
- IC50 [5]: < 0.368 µM (active)
- EC50 [7]: > 53 µM (inactive)

Compound: CCC1CSC(Nc2ccc(C(=O)/C=C/c3ccc(OC)c(OC)c3)cc2)=N1 (centres undefined)
- IC50 (Vero [15]): 23.5 µM (active)
- AC50 [22]: 51.2 µM (active)
- AC50 [23]: 4.47 µM (active)
- AC50 [24]: 6.23 µM (active)
- CC50 (Vero [17]): 18.1 µM (active)

Compound: CC(=O)Nc1cccc(-c2cnc(N)c(C(=O)c3cccnc3)n2)c1
- AC50 (HEK293): 21.4 µM (active)
- AC50 [25]: 0.193 µM (active)
